The assay has as its system cerebral NAD. The experiment in a line: 31P-MRS of the brain, phase I trial of oral NR in newly diagnosed PD patients. It is filed as in vivo, human. The method, then: A trial of tolerability and cerebral bioavailability of NAD supplementation therapy with nicotinamide riboside (“NR”), provided in the form of nicotinamide riboside chloride ([…]® from Chromadex) in PD patients was completed. In the trial, 30 individuals with newly diagnosed, drug naïve PD were randomized and given NR 500 mg×2/day or placebo for a period of 30 days. 31P-MRS was performed at baseline (Visit 1) and at on the last day of treatment (Visit 2). The scans of 27 individuals passed quality control at both visits. A single-center, double-blinded, randomized, placebo-controlled phase I trial of oral NR supplementation in newly diagnosed patients with PD was conducted. […] Due to the early onset, this patient underwent genetic investigation with whole-exome sequencing and SNP-chip based genome-wide copy number variation analysis, which excluded pathogenic mutations in PD-related genes, including PINK1 and PRKN. screening. Patient recruitment, inclusion, and follow-up was carried out by a GCP certified investigator. Sample size of 30 participants was chosen based on previously reported brain metabolic network analyses. Thirty PD patients were randomly assigned (Block size 6, allocation 1:1) to 500 mg NR, provided in the form of nicotinamide riboside chloride ([…]® from Chromadex), or placebo twice per day, 12 hours apart, using the electronic Case Report Form (Viedoc.com). The drug containers were sequentially marked by an independent third party. The […]®) and placebo were provided by ChromaDex, USA. Each NR capsule contained 250 mg of NR. Placebo capsules contained microcrystalline cellulose. The vials and capsules containing NR and placebo were identical in shape, colour, and smell. Study drug compliance was calculated from counting returned number of study capsules and self-reporting. Participants, examining physicians, medical- and research personnel were blinded for the duration of the trial. Sample size was determined by comparing previous literature with respect to the primary objective. At screening for trial entry, candidates underwent physical and neurological examination, brain MRI, and […]. Eligible patients who entered the trial were assessed at baseline (visit 1, V1) and after four weeks of exposure to either NR or placebo (visit 2, V2). At both visits, patients underwent physical and neurological examination, including assessment by the Movement Disorder Society Unified Parkinson's Disease Rating Scale section I-IV (MDS-UPDRS), and biological sampling. MR-PET was performed within one week prior to visit 1, and at visit 2. All participants remained naïve for antiparkinson drugs for the duration of the trial. All clinical assessments were performed by a blinded movement disorders expert. Each patient was examined by the same neurologist at both visits. Methodological details on each procedure are provided below. Safety was monitored through routine clinical blood tests and registration of adverse events. Adverse events (AE) were recorded and scored by the investigative physician. […] The AE relation to the study drug was scored as (1) unrelated, (2) unlikely, (3) possible, (4) probable or (5) definitely. MRI/S was conducted on a 3T Biograph mMR MR-PET scanner (Siemens Healthcare, Germany). Phosphorous MRS (31P-MRS) was performed on a double-resonant transmit/receive 1H/31P volume head-coil (Rapid Biomedical, Germany). […]

The source of these data is patent publication US20240366648A1, “NAD-AUGMENTATION THERAPY FOR PARKINSON'S DISEASE” (Vestlandets Innovasjonsselskap AS (VIS), priority 2021, published 2024).

The structures appear in SMILES notation.

On to `NC(=O)c1ccc[n+]([C@@H]2O[C@H](CO)[C@@H](O)[C@H]2O)c1` [NR, nicotinamide riboside], for which, where the note is “NR group n=13, oral NR 500 mg x2/day, 30 days, paired t-test p=0.016”, the “cerebral NAD levels normalized to ATP-α, visit 2 vs baseline” value is given as “highly significant increase”. Further, the “other metabolites detected by 31P-MRS, change between visits” value (NR group, 30 days) is “No other detected metabolites exhibited significant change”. For the setting “NR recipients with MRS data, 30 days”, the “patients showing an increase in cerebral NAD (MRS-responders)” value is given as 10/13. Moreover, the “patients with cerebral NAD change exceeding 10% of baseline levels” value (of the 10 MRS-responders among 13 NR recipients) is on record as 9. Besides, the “between visit change (visit 2/visit 1) in NAD/ATP-α ratio, NR vs placebo group” value (oral NR 500 mg x2/day, 30 days, t-test p=0.025) is listed as “significantly higher”.
